In the supplement of paper PMC11451515:

What was measured:
Experiment in all cases: AUC of viability dose-response curve (% viability x log10 dose units); higher = less sensitive
Conditions in all cases: 48 h
[1] = tested on: NOMO1
Procedure, shortened: (§1)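 Leukemia cells adapted to each medium were seeded in 1536-well plates (500 or 1000 cells/well) and given library compounds in DMSO for 48 h at 37°C. The 11 threefold doses spanned 47 μM to 0.79 nM, and CellTiter-Glo One luminescence was normalised per plate to DMSO and cell-free wells before four-parameter log-logistic fitting on log10 dose. Area under the curve was integrated with the trapezoidal rule, scaling curves above full viability and removing curves that failed quality control.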

[2] = tested on: P12-Ichikawa
Procedure, shortened: as §1

[3] = tested on: SEM cells
Procedure, shortened: as §1

[4] = RPMI 5 mM glucose + 10% dialyzed FBS

Compound | AUC of viability dose-response curve ([1]; HPLM + 10% dialyzed FBS) | AUC of viability dose-response curve ([1]; RPMI 5 mM glucose + 10% FBS) | AUC of viability dose-response curve [1, 4] | AUC of viability dose-response curve ([2]; HPLM + 10% dialyzed FBS) | AUC of viability dose-response curve ([2]; RPMI 5 mM glucose + 10% FBS) | AUC of viability dose-response curve [2, 4] | AUC of viability dose-response curve ([3]; HPLM + 10% dialyzed FBS) | AUC of viability dose-response curve ([3]; RPMI 5 mM glucose + 10% FBS) | AUC of viability dose-response curve [3, 4]
CO[C@@H]1[C@@H](O)[C@H](O)[C@@H](n2c3c(Cl)cccc3c3c4c(c5c6cccc(Cl)c6[nH]c5c32)C(=O)NC4=O)O[C@H]1CO | 340 | 323 | 325 | 266 | 259 | 251 | 292 | 254 | 283
Nc1nc(NCCNc2ncc(-n3ccnc3)c(-c3ccc(Cl)cc3Cl)n2)ccc1[N+](=O)[O-] | 460 | 412 | 442 | 464 | 447 | 466 | 452 | 446 | 450
Cc1c(C(=O)c2cccc3ccccc23)c2cccc3c2n1[C@H](CN1CCOCC1)CO3 | 432 | 404 | 394 | 417 | 366 | 397 | 372 | 375 | 403
CC[C@H]1CN2CCc3cc(OC)c(OC)cc3[C@@H]2C[C@@H]1C[C@H]1NCCc2cc(OC)c(OC)cc21 | 305 | 300 | 305 | 289 | 279 | 300 | 193 | 214 | 240
OCCN(CCO)c1nc(N2CCCCC2)c2nc(N(CCO)CCO)nc(N3CCCCC3)c2n1 | 459 | 438 | 465 | 459 | 467 | 463 | 454 | 457 | 461
CC(C)Cn1cnc2c(N)nc3ccccc3c21 | 450 | 466 | 448 | 442 | 451 | 463 | 459 | 452 | 455
C[N+]1(C)[C@@H]2CC(OC(=O)C(O)(c3cccs3)c3cccs3)C[C@H]1[C@@H]1O[C@@H]12 (some centres undefined) | 464 | 466 | 471 | 471 | 476 | 468 | 462 | 460 | 457
CN1CCC(CC1)=C2C3=C(C=CC=C3)\C=C/C4=C2C=CC=C4 | 470 | 467 | 468 | 473 | 467 | 477 | 469 | 467 | 468
Oc1ccc(-c2ccc(-c3cc(Nc4cccc(CNC5CC5)c4)[nH]n3)cc2)c(O)c1 | 402 | 396 | 409 | 403 | 372 | 404 | 321 | 376 | 374
CCOCC(O)COc1ccc(NC(=O)CC[S+](C)C)cc1 (centres undefined) | 460 | 411 | 413 | 442 | 452 | 408 | 451 | 424 | 433
CCOC(=O)[C@H]1O[C@@H]1C(=O)N[C@@H](CC(C)C)C(=O)NCCC(C)C | 448 | 445 | 456 | 462 | 461 | 469 | 462 | 475 | 462
CC(C)(O)C(=O)Nc1ccc([N+](=O)[O-])c(C(F)(F)F)c1 | 368 | 355 | 371 | 404 | 409 | 438 | 465 | 449 | 448
CCOC(=O)N[C@@H]1CC[C@@H]2[C@@H](C1)C[C@H]1C(=O)O[C@H](C)[C@H]1[C@H]2/C=C/c1ccc(-c2cccc(F)c2)cn1 | 466 | 467 | 468 | 472 | 464 | 466 | 473 | 458 | 461
CCc1cc(-c2n[nH]c(C)c2-c2ccc3c(c2)OCCO3)c(O)cc1O | 450 | 447 | 448 | 455 | 435 | 444 | 422 | 414 | 418
CCOC(=O)[C@@H](N)CCC(=O)N[C@@H](CSCc1ccccc1)C(=O)N[C@@H](C(=O)OCC)c1ccccc1 | 468 | 466 | 474 | 467 | 458 | 458 | 466 | 473 | 461
O=[S+]([O-])(NCCNC/C=C/c1ccc(Br)cc1)c1cccc2cnccc12 | 452 | 446 | 425 | 462 | 460 | 458 | 377 | 418 | 354
C1CN\2C[C@@H](\N=C2S1)C3=CC=CC=C3 | 465 | 442 | 429 | 467 | 462 | 455 | 459 | 396 | 476
O=C(NCC1CCOCC1)c1cnc(Nc2ccc(Cl)cc2Cl)nc1C(F)(F)F | 439 | 456 | 456 | 450 | 472 | 465 | 425 | 461 | 448
COC(=O)[C@H](c1ccccc1Cl)N1CCc2sccc2C1 | 357 | 328 | 343 | 414 | 416 | 427 | 449 | 440 | 432
C1COC(NC(C2CC2)C2CC2)=N1 | 428 | 415 | 408 | 425 | 459 | 404 |  |  | 
C[C@H](Cc1ccc(O)c(O)c1)[C@@H](C)Cc1ccc(O)c(O)c1 |  |  |  | 443 | 432 | 436 | 394 | 453 | 453
C[C@@H](N)C1CC[C@@H](CC1)C(=O)NC2=CC=NC=C2 (some centres undefined) | 472 | 462 | 466 | 469 | 470 | 470 | 438 | 452 | 464
CCCCCN(CCC12CC3CC(CC(C3)C1)C2)C(=O)NCCCc1ccncc1 | 454 | 465 | 467 | 458 | 469 | 465 | 472 | 463 | 466
N#Cc1ccnc(N2C(=O)CC[C@H]2C(=O)N(c2cncc(F)c2)[C@H](C(=O)NC2CC(F)(F)C2)c2ccccc2Cl)c1 | 348 | 356 | 380 | 321 | 333 | 361 | 359 | 334 | 379

Compound | AUC of viability dose-response curve ([1]; HPLM + 10% dialyzed FBS) | AUC of viability dose-response curve ([1]; RPMI 5 mM glucose + 10% FBS) | AUC of viability dose-response curve [1, 4] | AUC of viability dose-response curve ([2]; HPLM + 10% dialyzed FBS) | AUC of viability dose-response curve ([2]; RPMI 5 mM glucose + 10% FBS) | AUC of viability dose-response curve [2, 4] | AUC of viability dose-response curve ([3]; HPLM + 10% dialyzed FBS) | AUC of viability dose-response curve ([3]; RPMI 5 mM glucose + 10% FBS) | AUC of viability dose-response curve [3, 4]
Cc1cccc(-c2[nH]c(C(C)(C)C)nc2-c2ccc3c(c2)OCO3)n1 | 418 | 399 | 398 | 413 | 406 | 423 | 411 | 409 | 411
N=C(N)NC(=N)N1CCOCC1 | 465 | 461 | 447 | 473 | 454 | 463 | 472 | 467 | 460
N[C@@H](Cc1ccc(O)c(O)c1)C(=O)O | 459 | 475 | 456 | 471 | 454 | 466 | 456 | 433 | 458
N#Cc1ccc(NC(=O)Nc2ccccc2Br)c2nn[nH]c12 | 477 | 463 | 456 | 475 | 457 | 465 | 448 | 473 | 449
Cc1ccc([S+](=O)([O-])Nc2cc(Cl)ccc2C(=O)Nc2nc(-c3ccccc3)cs2)cc1 | 455 | 409 | 447 | 458 | 457 | 450 |  |  | 
Cc1cccc2c1CC[C@H](CN1CCC(c3c(Cl)cccc3Cl)CC1)C[C@@H]2O | 453 | 424 | 413 | 472 | 425 | 439 | 474 | 437 | 441
COc1cc(Cl)cn2c(-c3cccc(NC4CNC4)n3)cnc12 | 472 | 468 | 454 | 459 | 458 | 464 | 453 | 442 | 440
COc1ccc(C2(C#N)CCC(C(=O)O)CC2)cc1OC1CCCC1 (centres undefined) | 465 | 434 | 471 | 475 | 466 | 464 | 439 | 443 | 443
CC(C)(Sc1ccc(CCN(CCCCC2CCCCC2)C(=O)NC2CCCCC2)cc1)C(=O)O | 467 | 467 | 472 | 460 | 462 | 460 | 460 | 463 | 472
NCCc1ccc(O)c(O)c1 | 410 | 426 | 429 | 464 | 463 | 474 | 431 | 450 | 449
O=C1CCCC(=O)C1C(=O)c1ccc(C(F)(F)F)cc1[N+](=O)[O-] | 403 | 471 | 463 | 465 | 450 | 468 | 474 | 464 | 466
CC(C)[N+]1(C)C2CCC1CC(OC(=O)C(CO)c1ccccc1)C2.O.[Br-] (centres undefined) | 423 | 457 | 450 | 383 | 427 | 417 | 449 | 423 | 422
C[N]1C=C(C=N1)C2=CC=C3N=CC\4=C(N(C(=O)\C=C4)C5=CC6=C(CCN6C(=O)C=C)C=C5)C3=C2 | 359 | 396 | 375 | 404 | 391 | 393 | 359 | 360 | 353
CN1CCN(CCCN2c3ccccc3Sc3ccc(Cl)cc32)CC1.O=C(O)/C=C\C(=O)O.O=C(O)/C=C\C(=O)O | 362 | 390 | 386 | 429 | 421 | 423 | 471 | 466 | 465
CC(C)n1cnc2c(NCCc3ccc(O)cc3)nc(-c3csc4ccccc34)nc21 | 393 | 434 | 433 | 371 | 428 | 422 | 424 | 396 | 388
CN(C(Cc1ccc(O[S+](=O)([O-])c2cccc3cnccc23)cc1)C(=O)N1CCN(c2ccccc2)CC1)[S+](=O)([O-])c1cccc2cnccc12 (centres undefined) | 442 | 425 | 436 | 452 | 434 | 450 | 436 | 424 | 428
C=CC(=O)Nc1ccc2ncnc(Nc3ccc(OCc4cccc(F)c4)c(Cl)c3)c2c1 | 355 | 368 | 355 | 404 | 404 | 404 | 370 | 400 | 383
C[C@H]1Oc2cc(cnc2N)-c2c(nn(C)c2C#N)CN(C)C(=O)c2ccc(F)cc21 | 459 | 467 | 463 | 462 | 463 | 461 | 446 | 457 | 473
CCN(CC)CCCC(C)Nc1nc(C)cc(Nc2ccc3nc(C)cc(N)c3c2)n1 (centres undefined) | 464 | 470 | 468 | 461 | 464 | 469 |  |  | 
CC[C@@H]1C(=O)N(C)c2cnc(Nc3ccc(C(=O)NC4CCN(C)CC4)cc3OC)nc2N1C1CCCC1 | 259 | 240 | 252 | 187 | 196 | 210 | 205 | 215 | 213
CCC(C1CCC(C)C(O1)C(C)C(O)C(C)C(=O)C(CC)C2OC\3(O[C@]4(CC[C@@](C)(O4)C5CC[C@@](O)(CC)C(C)O5)C(O)\C=C3)C(C)CC2C)C([O-])=O (some centres undefined) |  |  |  | 426 | 403 | 382 |  |  | 
COc1cc2ncn(-c3cc(OCc4ccccc4C(F)(F)F)c(C(N)=O)s3)c2cc1OC | 349 | 375 | 375 | 333 | 352 | 364 | 358 | 354 | 372
Cc1cnc(Nc2ccc(CN3CCOCC3)cc2)nc1Nc1cccc([S+](=O)([O-])NC(C)(C)C)c1 |  |  |  | 299 | 300 | 292 |  |  | 
